Patent US20210038681A1, “PHARMACEUTICAL COMPOSITION FOR TREATING VIRAL HEPATITIS C” (priority 2018, published 2021)
Read-outs that look alike come from different tables or passages of the source.

Experiments:
[1] = tested on: BVDV, HRV-16, Flu-B; assay: Virus-cell protection assay, all tested viruses; assay type: cell-based; settings: Bovine viral diarrhea virus isolates and strains, HRV16, all of BVDV, read-out: EC50 against any of the tested viruses
[2] = tested on: HCV 1b Y93H replicon; assay: microbe, parasite or virus in culture; assay type: cell-based
Text: (§1) The susceptibility degrees of WT replicons in the transient assay were similar to the values obtained from a cell assay using the stable HCV replicons.

[3] = tested on: HCV 1b L31F replicon; assay: microbe, parasite or virus in culture; assay type: cell-based
Text: as §1

[4] = tested on: HCV 2a NS5A WT replicon; assay: microbe, parasite or virus in culture; assay type: cell-based
Text: as §1

[5] = tested on: HCV 4a NS5A L30H replicon; assay: microbe, parasite or virus in culture; assay type: cell-based
Text: as §1

[6] = tested on: HCV 1b WT replicon; assay: microbe, parasite or virus in culture; assay type: cell-based
Text: as §1

[7] = tested on: HCV 4a NS5A P58L replicon; assay: microbe, parasite or virus in culture; assay type: cell-based
Text: as §1

[8] = tested on: HCV 4a NS5A Y93H replicon; assay: microbe, parasite or virus in culture; assay type: cell-based
Text: as §1

[9] = tested on: HCV 1a Q30K replicon; assay: microbe, parasite or virus in culture; assay type: cell-based
Text: as §1

[10] = tested on: HCV 1a M28T replicon; assay: microbe, parasite or virus in culture; assay type: cell-based
Text: as §1

[11] = tested on: HCV 1a Y93H replicon; assay: microbe, parasite or virus in culture; assay type: cell-based
Text: as §1

[12] = tested on: HCV 1b L31V replicon; assay: microbe, parasite or virus in culture; assay type: cell-based
Text: as §1

[13] = tested on: HCV 3a NS5A WT replicon; assay: microbe, parasite or virus in culture; assay type: cell-based
Text: as §1

[14] = tested on: HCV 2a NS5A Y93H replicon; assay: microbe, parasite or virus in culture; assay type: cell-based
Text: as §1

[15] = tested on: HCV 5a NS5A L31F replicon; assay: microbe, parasite or virus in culture; assay type: cell-based
Text: as §1

[16] = tested on: HCV 1a Y93N replicon; assay: microbe, parasite or virus in culture; assay type: cell-based
Text: as §1

[17] = tested on: HCV 5a NS5A WT replicon; assay: microbe, parasite or virus in culture; assay type: cell-based
Text: as §1

[18] = tested on: HCV 1a Q30R replicon; assay: microbe, parasite or virus in culture; assay type: cell-based
Text: as §1

[19] = tested on: HCV 4a NS5A WT replicon; assay: microbe, parasite or virus in culture; assay type: cell-based
Text: as §1

[20] = tested on: HCV 1b L31F + Y93H replicon; assay: microbe, parasite or virus in culture; assay type: cell-based
Text: as §1

[21] = tested on: HCV 1a WT replicon; assay: microbe, parasite or virus in culture; assay type: cell-based
Text: as §1

[22] = tested on: HCV 1a Y93C replicon; assay: microbe, parasite or virus in culture; assay type: cell-based
Text: as §1

[23] = tested on: HCV 6a NS5A WT replicon; assay: microbe, parasite or virus in culture; assay type: cell-based
Text: as §1

[24] = tested on: bovine viral diarrhea virus (BVDV); assay: Virus-cell protection assay; assay type: cell-based; settings: Bovine viral diarrhea virus isolates and strains, cell line BT
[25] = tested on: HCV genotype 3a NS5A replicon cells; assay: Standard 3-day HCV replicon assay; assay type: cell-based; settings: Hepatitis C virus, 72 h
[26] = tested on: HCV 1a Wild-type replicon; assay: microbe, parasite or virus in culture; settings: Hepatitis C virus, Huh-7, read-out: Mean EC50 (nM) ± SD
[27] = in vitro; settings: dog, MDCK cells (uninfected)
[28] = tested on: HCV genotype 1a replicon cells; assay: Standard 3-day HCV replicon assay; assay type: cell-based; settings: Hepatitis C virus, 72 h, 3 days, 5% fetal bovine serum
[29] = tested on: HCV genotype 6a NS5A replicon cells; assay: Standard 3-day HCV replicon assay; assay type: cell-based; settings: Hepatitis C virus, 72 h
[30] = tested on: HCV 3a NS5A Y93H replicon cells; assay type: cell-based; settings: read-out: Mean EC50 (nM) ±SD; HCV genotype 3a, variant Y93H*; replicon cells from cell passage assay
[31] = in vitro; settings: human, HeLa cells (uninfected; HeLa H1A in the text)
[32] = tested on: MDCK cells; settings: MDCK cells, 10,000 nM
[33] = tested on: HCV 2a NS5A F28S replicon; assay type: cell-based; settings: HCV genotype 2a, variant F28S; EC50 relative to WT
Text: as §1

[34] = tested on: HCV 4a NS5A L30H + Y93H replicon; assay type: cell-based; settings: HCV genotype 4a, variant L30H + Y93H; EC50 relative to WT
Text: as §1

[35] = tested on: HCV 6a NS5A F28S replicon; assay type: cell-based; settings: HCV genotype 6a, variant F28S; EC50 relative to WT
Text: as §1

[36] = tested on: HCV 1b L31V + Y93H replicon; assay type: cell-based; settings: HCV genotype 1b, variant L31V + Y93H; EC50 relative to WT
Text: as §1

[37] = tested on: human rhinovirus 16 (HRV-16); assay: Virus-cell protection assay; assay type: cell-based; settings: Rhinovirus A, HRV16; Virus HRV-16, cell line HeLa
[38] = tested on: HCV genotype 7a NS5A replicon cells; assay: Standard 3-day HCV replicon assay; assay type: cell-based; settings: Hepatitis C virus, 72 h
[39] = tested on: HCV genotype 5a NS5A replicon cells; assay: Standard 3-day HCV replicon assay; assay type: cell-based; settings: Hepatitis C virus, 72 h
[40] = tested on: HCV genotype 1b replicon cells; assay: Standard 3-day HCV replicon assay; assay type: cell-based; settings: Hepatitis C virus, 72 h, 3 days, 5% fetal bovine serum
[41] = tested on: HCV genotype 2a NS5A replicon cells; assay: Standard 3-day HCV replicon assay; assay type: cell-based; settings: Hepatitis C virus, 72 h
[42] = tested on: influenza B virus (Flu-B); assay: Virus-cell protection assay; assay type: cell-based; settings: cell line MDCK
[43] = in vitro; settings: cattle, BT cells (uninfected)
[44] = tested on: Wild-type HCV 1b replicon; assay type: cell-based; settings: Hepatitis C virus, read-out: Mean EC50 (nM)
[45] = tested on: HCV genotype 4a NS5A replicon cells; assay: Standard 3-day HCV replicon assay; assay type: cell-based; settings: Hepatitis C virus, 72 h
[46] = tested on: HeLa cells; settings: HeLa H1A cells, 10,000 nM
[47] = Hepatitis C virus, read-out: Mean EC50 (nM) ±SD

## COC(=O)N[C@H](C(=O)N1CCC[C@H]1c1ncc(-c2ccc3cc(-c4ccc5nc([C@@H]6CCCN6C(=O)[C@@H](NC(=O)OC)C(C)C)[nH]c5c4)ccc3c2)[nH]1)C(C)C [ASC16, Ravidasvir]
[1]
  EC50: > 3300 nM
[2]; HCV genotype 1b, variant Y93H, EC50 relative to WT
  Fold change: 81
[2]; [47]
  EC50: 0.9 ± 0.06 nM
[3]; HCV genotype 1b, variant L31F, EC50 relative to WT
  Fold change: 4.0
[3]; [47]
  EC50: 0.05 ± 0.009 nM
[4]; HCV genotype 2a, WT, EC50 relative to WT
  Fold change: 1
[4]; [47]
  EC50: 0.12 ± 0.06 nM
[5]; HCV genotype 4a, variant L30H, EC50 relative to WT
  Fold change: 887
[5]; [47]
  EC50: 14 ± 0.8 nM
[6]; HCV genotype 1b, WT, EC50 relative to WT
  Fold change: 1
[6]; [47]
  EC50: 0.01 ± 0.003 nM
[7]; HCV genotype 4a, variant P58L, EC50 relative to WT
  Fold change: 197
[7]; [47]
  EC50: 3 ± 0.09 nM
[8]; HCV genotype 4a, variant Y93H, EC50 relative to WT
  Fold change: 210
[8]; [47]
  EC50: 3.2 ± 0.2 nM
[9]; HCV genotype 1a, variant Q30K, EC50 relative to WT
  Fold change: 2,965
[9]; [47]
  EC50: 87 ± 17 nM
[10]; HCV genotype 1a, variant M28T, EC50 relative to WT
  Fold change: 189
[10]; [47]
  EC50: 5.5 ± 2.8 nM
[11]; HCV genotype 1a, variant Y93H, EC50 relative to WT
  Fold change: 1,630
[11]; [47]
  EC50: 48 ± 1 nM
[12]; HCV genotype 1b, variant L31V, EC50 relative to WT
  Fold change: 85
[12]; [47]
  EC50: 0.9 ± 0.1 nM
[13]; HCV genotype 3a, WT, EC50 relative to WT
  Fold change: 1
[13]; [47]
  EC50: 1.2 nM
[14]; HCV genotype 2a, variant Y93H, EC50 relative to WT
  Fold change: 816
[14]; [47]
  EC50: 96 ± 23 nM
[15]; HCV genotype 5a, variant L31F, EC50 relative to WT
  Fold change: 76
[15]; [47]
  EC50: 6.1 ± 0.8 nM
[16]; HCV genotype 1a, variant Y93N, EC50 relative to WT
  Fold change: 3,876
[16]; Hepatitis C virus, read-out: Mean EC50 (nM) ±SD, HCV genotype 1a, variant Y93N
  EC50: > 100 nM
[16]; read-out: Mean EC50 (nM) ±SD, HCV genotype 1a, variant Y93N
  EC50: 113 ± 7.3 nM
[17]; HCV genotype 5a, WT, EC50 relative to WT
  Fold change: 1
[17]; [47]
  EC50: 0.08 ± 0.04 nM
[18]; HCV genotype 1a, variant Q30R, EC50 relative to WT
  Fold change: 168
[18]; [47]
  EC50: 4.9 ± 1.3 nM
[19]; HCV genotype 4a, WT, EC50 relative to WT
  Fold change: 1
[19]; [47]
  EC50: 0.02 ± 0.004 nM
[20]; HCV genotype 1b, variant L31F + Y93H, EC50 relative to WT
  Fold change: 2,541
[20]; [47]
  EC50: 28 ± 5.4 nM
[21]; HCV genotype 1a, WT, EC50 relative to WT
  Fold change: 1
[21]; [47]
  EC50: 0.03 ± 0.002 nM
[22]; HCV genotype 1a, variant Y93C, EC50 relative to WT
  Fold change: 169
[22]; [47]
  EC50: 5 ± 0.4 nM
[23]; HCV genotype 6a, WT, EC50 relative to WT
  Fold change: 1
[23]; [47]
  EC50: 0.2 ± 0.04 nM
[24]
  EC50: > 10000 nM
[25]
  EC50: 0.95 ng/mL
  EC90: 2.8 ng/mL
[25]; read-out: EC50 (nM) Mean ± SD
  EC50: 1.14 ± 0.3 nM
[25]; read-out: EC90 (nM) Mean ± SD
  EC90: 3.35 ± 1.3 nM
[26]
  EC50: 0.03 nM
[27]
  CC50: > 5000 nM
[28]; read-out: EC50
  EC50: 0.09 ng/mL
[28]; read-out: EC50 (nM) Mean ± SD
  EC50: 0.12 ± 0.01 nM
[28]; read-out: EC90
  EC90: 0.24 ng/mL
[28]; read-out: EC90 (nM) Mean ± SD
  EC90: 0.32 ± 0.02 nM
[29]
  EC50: 0.25 ng/mL
  EC90: 0.92 ng/mL
[29]; read-out: EC50 (nM) Mean ± SD
  EC50: 0.3 ± 0.1 nM
[29]; read-out: EC90 (nM) Mean ± SD
  EC90: 1.1 ± 0.3 nM
[30]
  EC50: 1040 nM
[31]
  CC50: > 3300 nM
[32]
  cytotoxicity at the highest test concentration: significant cytotoxicity
[33]
  Fold change: 4,575
[34]
  Fold change: 57,587
[35]
  Fold change: 2,146
[36]
  Fold change: 37,231
[37]
  EC50: > 3300 nM
[38]
  EC50: 0.06 ng/mL
  EC90: 0.17 ng/mL
[38]; read-out: EC50 (nM) Mean ± SD
  EC50: 0.07 ± 0.02 nM
[38]; read-out: EC90 (nM) Mean ± SD
  EC90: 0.2 ± 0.05 nM
[39]
  EC50: 0.03 ng/mL
  EC90: 0.1 ng/mL
[39]; read-out: EC50 (nM) Mean ± SD
  EC50: 0.04 ± 0.01 nM
[39]; read-out: EC90 (nM) Mean ± SD
  EC90: 0.12 ± 0.02 nM
[40]; read-out: EC50
  EC50: 0.015 ng/mL
[40]; read-out: EC50 (nM) Mean ± SD
  EC50: 0.02 ± 0.002 nM
[40]; read-out: EC90
  EC90: 0.02 ng/mL
[40]; read-out: EC90 (nM) Mean ± SD
  EC90: 0.03 ± 0.004 nM
[41]
  EC50: 0.12 ng/mL
  EC90: 0.38 ng/mL
[41]; read-out: EC50 (nM) Mean ± SD
  EC50: 0.14 ± 0.03 nM
[41]; read-out: EC90 (nM) Mean ± SD
  EC90: 0.45 ± 0.1 nM
[42]
  EC50: > 5000 nM
[43]
  CC50: > 10000 nM
[44]
  EC50: 0.01 nM
[45]
  EC50: 0.04 ng/mL
  EC90: 0.11 ng/mL
[45]; read-out: EC50 (nM) Mean ± SD
  EC50: 0.05 ± 0.01 nM
[45]; read-out: EC90 (nM) Mean ± SD
  EC90: 0.13 ± 0.015 nM
[46]
  cytotoxicity at the highest test concentration: significant cytotoxicity
